In ChEMBL document CHEMBL2046379, “CCLab--a multi-objective genetic algorithm based combinatorial library design software and an application for histone deacetylase inhibitor design” (Bioorg Med Chem Lett, 2012):

Tests used:
[1] = biological target: T1, Protein deacetylase HDAC6 (Homo sapiens, UniProt Q9UBN7); assay: Inhibition of human recombinant His6-tagged and GST-fuses HDAC6 expressed in insect High5 cells using Boc-Lys(eacetyl)- AMC as substrate after 3 hrs by fluorescence assay
T1 sequence (Q9UBN7 whole entry): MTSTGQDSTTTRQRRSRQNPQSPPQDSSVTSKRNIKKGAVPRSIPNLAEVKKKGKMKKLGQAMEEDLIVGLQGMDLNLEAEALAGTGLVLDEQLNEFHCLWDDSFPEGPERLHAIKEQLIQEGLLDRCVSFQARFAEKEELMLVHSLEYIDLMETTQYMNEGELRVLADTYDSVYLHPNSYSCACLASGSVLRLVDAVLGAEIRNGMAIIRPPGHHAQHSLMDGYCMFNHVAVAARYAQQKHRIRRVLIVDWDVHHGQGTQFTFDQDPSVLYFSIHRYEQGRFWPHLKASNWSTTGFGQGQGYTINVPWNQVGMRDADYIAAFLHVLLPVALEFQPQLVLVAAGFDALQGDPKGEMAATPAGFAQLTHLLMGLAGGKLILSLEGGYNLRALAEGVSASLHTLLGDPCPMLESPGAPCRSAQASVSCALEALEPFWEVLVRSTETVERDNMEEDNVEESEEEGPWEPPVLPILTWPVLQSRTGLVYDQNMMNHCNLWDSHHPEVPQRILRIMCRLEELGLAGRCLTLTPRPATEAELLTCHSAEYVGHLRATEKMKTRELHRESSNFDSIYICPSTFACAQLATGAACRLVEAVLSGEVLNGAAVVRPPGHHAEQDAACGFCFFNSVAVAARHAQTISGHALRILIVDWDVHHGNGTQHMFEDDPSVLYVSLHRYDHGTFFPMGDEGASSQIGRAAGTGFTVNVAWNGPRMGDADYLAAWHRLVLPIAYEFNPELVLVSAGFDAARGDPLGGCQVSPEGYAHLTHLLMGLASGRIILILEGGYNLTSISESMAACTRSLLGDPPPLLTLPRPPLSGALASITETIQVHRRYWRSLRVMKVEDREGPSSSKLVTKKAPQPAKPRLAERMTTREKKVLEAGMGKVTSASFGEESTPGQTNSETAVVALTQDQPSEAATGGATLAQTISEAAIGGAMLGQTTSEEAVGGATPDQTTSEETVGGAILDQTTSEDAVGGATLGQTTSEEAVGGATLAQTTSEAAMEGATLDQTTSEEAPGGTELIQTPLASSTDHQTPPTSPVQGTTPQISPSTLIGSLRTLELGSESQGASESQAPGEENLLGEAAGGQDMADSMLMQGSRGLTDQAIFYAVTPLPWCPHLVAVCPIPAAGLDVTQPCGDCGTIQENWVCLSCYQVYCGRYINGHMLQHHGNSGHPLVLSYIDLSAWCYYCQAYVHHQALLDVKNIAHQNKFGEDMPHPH

Histone deacetylase 3 = Histone deacetylase 3 (Homo sapiens, UniProt O15379); assay: Inhibition of human recombinant His6-tagged and GST-fuses HDAC3 expressed in insect High5 cells using Ac-Lys-Tyr-Lys(e-acetyl)-AMC as substrate after 24 hrs by fluorescence assay
Histone deacetylase 1 = Histone deacetylase 1 (Homo sapiens, UniProt Q13547); assay: Inhibition of human recombinant His6-tagged and GST-fuses HDAC1 expressed in insect High5 cells using Ac-Lys-Tyr-Lys(e-acetyl)-AMC as substrate after 24 hrs by fluorescence assay
Chain of Histone deacetylase 1 (Q13547 whole entry): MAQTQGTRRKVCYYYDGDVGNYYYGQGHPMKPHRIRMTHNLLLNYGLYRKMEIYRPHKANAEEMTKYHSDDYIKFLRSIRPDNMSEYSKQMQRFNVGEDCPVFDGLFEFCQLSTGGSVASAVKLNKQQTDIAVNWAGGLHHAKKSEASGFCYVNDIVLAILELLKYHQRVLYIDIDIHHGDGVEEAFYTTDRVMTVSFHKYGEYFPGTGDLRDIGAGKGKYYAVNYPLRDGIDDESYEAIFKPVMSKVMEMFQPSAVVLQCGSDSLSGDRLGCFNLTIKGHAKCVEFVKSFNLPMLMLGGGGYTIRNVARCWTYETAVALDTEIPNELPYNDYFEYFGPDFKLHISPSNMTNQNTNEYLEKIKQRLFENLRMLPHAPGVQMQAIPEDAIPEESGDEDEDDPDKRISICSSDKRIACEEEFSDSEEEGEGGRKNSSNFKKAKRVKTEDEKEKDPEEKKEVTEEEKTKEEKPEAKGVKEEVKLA

Chain of Histone deacetylase 3 (O15379 whole entry): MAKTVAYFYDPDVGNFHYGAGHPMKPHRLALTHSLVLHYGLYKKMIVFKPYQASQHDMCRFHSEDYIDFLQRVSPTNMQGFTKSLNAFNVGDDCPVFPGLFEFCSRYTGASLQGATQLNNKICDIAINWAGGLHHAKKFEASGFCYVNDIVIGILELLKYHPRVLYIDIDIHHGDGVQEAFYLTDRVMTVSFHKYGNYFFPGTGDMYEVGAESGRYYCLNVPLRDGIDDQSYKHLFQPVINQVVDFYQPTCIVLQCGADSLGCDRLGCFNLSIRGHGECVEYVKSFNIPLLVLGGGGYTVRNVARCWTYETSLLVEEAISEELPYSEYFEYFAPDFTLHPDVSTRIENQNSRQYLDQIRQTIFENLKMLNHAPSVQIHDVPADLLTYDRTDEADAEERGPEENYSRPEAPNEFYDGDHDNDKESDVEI

IC50 [1]	IC50 (Histone deacetylase 3)	IC50 (Histone deacetylase 1)	Compound
58.7 µM	–	–	C=CCCC(=O)NCCCN1CCc2nc(C(=O)NO)sc2C1
23.2 µM	26.4 µM	40.1 µM	O=C(/C=C/c1ccccc1)NCCCCN1CCc2nc(C(=O)NO)sc2C1
0.45 µM	16.1 µM	22.5 µM	COc1ccc(/C=C/C(=O)Nc2ccc(C(=O)N3CCc4nc(C(=O)NO)sc4C3)cc2)cc1
9.55 µM	34.1 µM	35.1 µM	COc1ccc(/C=C/C(=O)NCCCCN2CCc3nc(C(=O)NO)sc3C2)cc1
13.5 µM	13.5 µM	39.4 µM	O=C(/C=C/c1ccccc1)NCCCN1CCc2nc(C(=O)NO)sc2C1
1.07 µM	4.8 µM	6.8 µM	CC(c1ccc(NC(=O)/C=C/c2ccccc2)nc1)N1CCc2nc(C(=O)NO)sc2C1 (centres undefined)
13.5 µM	19.2 µM	65.7 µM	C=CCCC(=O)Nc1ccc(C(C)N2CCc3nc(C(=O)NO)sc3C2)cn1 (centres undefined)
8.77 µM	6.62 µM	10.3 µM	COc1ccc(/C=C/C(=O)NCCCN2CCc3nc(C(=O)NO)sc3C2)cc1
1.55 µM	5.7 µM	6.8 µM	COc1ccc(/C=C/C(=O)Nc2ccc(C(C)N3CCc4nc(C(=O)NO)sc4C3)cn2)cc1 (centres undefined)
2.69 µM	4.89 µM	6.08 µM	O=C(NCCCCN1CCc2nc(C(=O)NO)sc2C1)c1ccc(-c2ccccc2)s1
1.33 µM	1.94 µM	2.96 µM	CC(c1ccc(NC(=O)c2ccc(-c3ccccc3)s2)nc1)N1CCc2nc(C(=O)NO)sc2C1 (centres undefined)
1.22 µM	2.19 µM	11.5 µM	CC(C)N(C(=O)/C=C/c1ccccc1)c1cccc(CN2CCc3nc(C(=O)NO)sc3C2)c1
0.39 µM	9.38 µM	9.7 µM	C=CCCC(=O)Nc1ccc(C(=O)N2CCc3nc(C(=O)NO)sc3C2)cc1
24.7 µM	–	–	C=CCCC(=O)NCCCCN1CCc2nc(C(=O)NO)sc2C1
3.39 µM	5.09 µM	5.67 µM	O=C(NCCCN1CCc2nc(C(=O)NO)sc2C1)c1ccc(-c2ccccc2)s1
0.12 µM	2.66 µM	2.59 µM	O=C(Nc1ccc(C(=O)N2CCc3nc(C(=O)NO)sc3C2)cc1)c1ccc(-c2ccccc2)s1
